Measurements taken from patent US9873670B2, “Arylquinoline and analog compounds and use thereof to treat cancer” (UNIVERSITY OF KENTUCKY RESEARCH FOUNDATION, priority 2013, dated 2018).
Entries after “also recorded” stand apart in the source; their conditions may differ.

What was measured:
[1] = tested on: cancer cells co-cultured with Par-4-/- MEFs; experiment: Apoptosis in co-cultures of Par-4-/- MEFs and cancer cells; format: cell-based; details: 500 nM
Protocol: (§1) Top: Cancer cells were co-cultured with MEFs and treated with Arylquin 1 (500 nM) or vehicle and tested for apoptosis. Bottom: Serum from mice injected with Arylquin 1 (Aq) or corn oil vehicle (V), was examined by Western blot analysis (not shown). Aliquots of serum from these mice were either directly added to the growth medium of cells in culture, or incubated with the indicated antibody, and then added to the growth medium of PC-3 MM2 cells to test for apoptosis.
(§2) See Hebbar, N., Wang, C. & Rangnekar, V. M. J Cell Phys 227, 3715-3721 (2012) and Shrestha-Bhattarai, T., Hebbar, N. & Rangnekar, V. M. Cancer Cell 24, 3-5 (2013). A total of three independent experiments were performed; and approximately 500 cells were scored in each experiment for apoptosis under a fluorescent microscope. Cell surface GRP78 expression on the cancer cell surface was quantified by FACS analysis in the Flow Cytometry Shared Resource Facility, Markey Cancer Center as previously described. See Hebbar, N., Wang, C. & Rangnekar, V. M. J Cell Phys 227, 3715-3721 (2012).

[2] = tested on: normal/immortalized human cells; experiment: Par-4 secretion from normal/immortalized human cells; format: cell-based
Protocol: In another aspect, the subject technology provides assays for screening test compounds that interfere with vimentin binding to PAR-4 or which cause release of vimentin-bound PAR-4. In a typical assay, cells, such as HEL cells, are seeded onto an appropriate support, such as 60-mm plates containing supplemented growth medium (e.g., supplemented with 0.1% serum) at a desired confluency, such as 40-70% confluency, and treated with the test compound (e.g., 500 nM) or control vehicle. The cells are allowed to grow for a period of time, such as 24 hours, after which the conditioned medium (CM) is concentrated (e.g., concentrated 30× to 100 μl using Millipore tubes (Amicon Ultra centrifugal filters, Ultracel-10K) by 15 min centrifugation at 4500 rpm). The concentrated CM is then subjected to co-immunoprecipitation using detectably labeled PAR-4 and vimentin antibodies in the presence of various concentrations of purified PAR-4 and the precipitated proteins are resolved by SDS-PAGE and analyzed by Western blot analysis. The amount of immunoprecipitated PAR-4-vimentin complex is compared to that of control samples. For example, chemiluminescent signals may be quantified in the BIO-RAD Molecular Imager ChemiDoc XRS+Imaging system using Quantity One software. […]

prostate cancer cells = experiment: Par-4 secretion from prostate cancer cells; format: cell-based; details: relative to vehicle control
vimentin = experiment: Pull-down with biotinylated arylquin to identify target protein; format: binding, mouse (MEFs), human (HEL); details: lysates of MEFs and HEL cells, biotinylated analog
Protocol: Pull down experiments: To identify the target protein for compound Arylquin 1, pull-down experiments were performed as described previously. See Bargagna-Mohan, P., et al. J Biol Chem 285, 7657-7669 (2010). MEFs or HEL cells (grown to confluence in 15 cm plates) were lysed in […] lysis buffer (40 mM Hepes, pH 7.8; 140 mM NaCl; 10 mM NaF; 10% Glycerol, 1 mM EDTA; 1% Triton 100), and the lysates were pre-cleared at 4° C. for 1 h with 100 μL streptavidin beads (Novagen, Strep-Tactin Superflow Agarose). Binding reactions were performed by incubating the pre-cleared cell lysates with 50 μL beads±25 μg of biotinylated Arylquin 1 at 4° C. for 2 h. The beads were then washed four times with buffer (40 mM Hepes, pH 7.8; 140 mM NaCl; 10 mM NaF; 10% Glycerol, 1 mM EDTA), and bound protein was eluted with 50 μL of 2.5 mM Biotin/PBS. Eluted proteins were resolved by SDS-PAGE and Coomassie blue staining.

[3] = tested on: cancer cells co-cultured with Par-4+/+ MEFs; experiment: Apoptosis in co-cultures of Par-4+/+ MEFs and cancer cells; format: cell-based
Protocol: as §1, §2

DU145 cells = experiment: Apoptosis, DU145 cells; format: cell-based, human; details: 500 nM
Protocol: as §2

Par-4 in serum = experiment: Circulating Par-4 in serum of injected mice; format: in vivo, C57BL/6 mice; details: 10 mg/kg intraperitoneal, 24 h
Protocol: Animal experiments: C57BL/6 mice were injected via the intraperitoneal route with Arylquin 1 (10 mg/kg body weight) or corn oil vehicle, and whole-blood samples were collected 24 h later. Serum was separated from the blood samples, heated at 56° C. to inactivate complement. Aliquots of the mouse serum samples were added to the growth medium (final 20% mouse serum) of normal and cancer cells in culture and tested for induction of ex vivo apoptosis in cancer cells. All animal procedures were performed with University of Kentucky IACUC approval.

[4] = tested on: mouse embryonic fibroblast (MEF) cells; experiment: Par-4 secretion from normal mouse fibroblasts (Western blot of conditioned medium); format: cell-based
Protocol: In another aspect, the subject technology provides assays for screening test compounds that interfere with vimentin binding to PAR-4 or which cause release of vimentin-bound PAR-4. In a typical assay, cells, such as HEL cells, are seeded onto an appropriate support, such as 60-mm plates containing supplemented growth medium (e.g., supplemented with 0.1% serum) at a desired confluency, such as 40-70% confluency, and treated with the test compound (e.g., 500 nM) or control vehicle. The cells are allowed to grow for a period of time, such as 24 hours, after which the conditioned medium (CM) is concentrated (e.g., concentrated 30× to 100 μl using Millipore tubes (Amicon Ultra centrifugal filters, Ultracel-10K) by 15 min centrifugation at 4500 rpm). The concentrated CM is then subjected to co-immunoprecipitation using detectably labeled PAR-4 and vimentin antibodies in the presence of various concentrations of purified PAR-4 and the precipitated proteins are resolved by SDS-PAGE and analyzed by Western blot analysis. The amount of immunoprecipitated PAR-4-vimentin complex is compared to that of control samples. For example, chemiluminescent signals may be quantified in the BIO-RAD Molecular Imager ChemiDoc XRS+Imaging system using Quantity One software. Induction of Par-4 secretion by the test drug (e.g., 500 nM), as judged by this Western blot analysis procedure, will indicate dissociation of Par-4 from vimentin. […] For such experiments, cells may be treated with the test drug (e.g., 500 nM) or vehicle for an appropriate period of time, such as 24 hours, and then cell lysates are prepared and subjected to immunoprecipitation using an appropriate amount of a Par-4 antibody, vimentin antibody or control IgG antibody by using any standard immunoprecipitation procedure. Following […], the complexes are resolved, preferably by Western blot analysis as described above. If the drug inhibits the binding of Par-4 to vimentin, it will be reflected in the lack of co-immunoprecipitation of Par-4 with the vimentin antibody, and co-immunoprecipitation of vimentin with the Par-4 antibody.
Co-Immunoprecipitation and Western blot analysis: Protein extracted from cell lysates was filtered, pre-cleared with 25 μL (bed volume) of protein G-Sepharose beads and immunoprecipitated with 1 μg of respective antibodies. The eluted proteins were resolved by SDS-PAGE, and subjected to Western blot analysis as described.
To identify Par-4 secretagogues, we synthesized and screened 3-arylquinolines as well as related quinolones and quinothiolones for the secretion of Par-4 protein from normal fibroblasts under conditions that are not toxic to the cells.
We screened representative members of each of these heterocyclic families on a compound-by-compound basis for the secretion of Par-4 protein from normal mouse fibroblasts under conditions that were not toxic to the cells. Initial expectations were that these heterocycles would serve as Nutlin-3a surrogates and inhibit MDM2, but studies reported herein established a completely different mechanism of action, reflecting that the structural dissimilarities between these heterocycles and Nutlin-3a outweighed the similarities that led to their initial selection for screening.

CN(C)c1ccc2cc(-c3ccccc3F)c(N)nc2c1 [Arylquin 1, 3-(2-fluorophenyl)-N^7,N^7-dimethylquinoline-2,7-diamine]
apoptosis of cancer cells in co-culture [1]: did not induce apoptosis
secretion of Par-4 from normal fibroblasts and epithelial cells ([2]; nanomolar concentrations): dose-dependent secretion of Par-4 at nanomolar concentrations
Par-4 secretion ([2]; normal/immortalized human cells): induced robust secretion of Par-4
Par-4 secretion (prostate cancer cells): showed induction of Par-4 secretion
target protein identified by pull-down (vimentin): Vimentin was the primary target
apoptosis of cancer cells in co-culture ([3]; 500 nM, Par-4+/+ MEFs, relative to vehicle): resulted in apoptosis of the cancer cells
paracrine apoptosis of lung cancer cells by Par-4 secreted from normal cells ([3]; p53-wild type, p53-deficient and oncogenic K-ras lung cancer cells): adequate to induce paracrine apoptosis
apoptosis (DU145 cells): not in LNCaP or DU145 cells
Par-4 secretion in serum relative to vehicle control (Par-4 in serum): 5 fold
Par-4 secretion ([4]; MEF cells): dose-dependent secretion
level of Par-4 secretion, structure-activity comparison among analogs ([4]; normal mouse fibroblasts, conditions not toxic to the cells): most active; also recorded: highest levels of Par-4 secretion
